Assay [1] has as its system NIH/Swiss mice. Description: acute food intake assay in overnight-fasted mice, IP injection. It is filed as in vivo, mouse. The protocol: The effect of AFP-6 on food intake was investigated using an acute food intake assay. This assay measured food consumption in lean, group-housed, overnight-fasted NIH/Swiss mice. 12 mice were housed 3 to a cage. The sample compound, in this case AFP-6, was injected IP in mice and food intake was measured during the next 2-hours. Decreased, as well as increased, food intake can be measured. Testing various doses of the compound generated ED50's. The assay was performed as follows: 1. Remove food (water ad libitum) at 5:00 pm the evening before the study. 2. Weigh food pellets (3 pellets/cage). 3. Inject animals intraperitoneally with 200 ul of appropriate solution, t=0. 4. Immediately add pre-weighed food to each cage (away from water bottle spout) and allow animals to feed undisturbed. 5. At 30, 60, and 120 minutes, collect and weigh food. 6. Analyze data. Data points represent mean ±sd of n=12.
Twelve mice were injected IP at t=0 for each dose, 0.3, 1, 3, 10, 30, 100, or 300 nmol/kg of AFP-6 (Amylin Pharmaceuticals, Inc.) (n=12/group). Food was introduced immediately after injection and amount consumed measured at t=30, 60, and 120 min.

Assay [2] concerns Harlan Sprague Dawley rats. Description: gastric emptying rate in conscious rats (3H-glucose gavage). It counts as in vivo, rat. The settings on record: subcutaneous. As to the method:
Male Harlan Sprague Dawley® rats, 237-317 g, were housed with a 12:12 hour light:dark cycle. The experiment was carried out during the light cycle. At time=0 min, test peptide (amylin or AFP-6) at 6.3, 20, 63, 200, 632, and 1122 μg/kg or vehicle was injected (subcutaneous) into conscious rats (n=6/group). At t=5 min, a solution of 1 mL sterile water containing 5 μCi D-[3-^3H] glucose was gavaged by oropharyngeal tube to conscious rats. Blood samples were collected 30 min after gavage and assayed for counts per minute (CPM) in plasma. 20% benzocaine liquid topical anesthetic was used to eliminate pain during sampling. (Gedulin et al. (1995) Gastroenterology 108:A604). The appearance of counts in plasma is a reflection of the rate of gastric emptying. Significance of difference (p<0.05) was determined by ANOVA.

For the compound `CSCC[C@H](NC(=O)[C@H](CC(C)C)NC(=O)[C@H](CCC(N)=O)NC(=O)[C@H](Cc1c[nH]c2ccccc12)NC(=O)[C@H](CC(C)C)NC(=O)[C@H](CCCNC(=N)N)NC(=O)[C@H](Cc1c[nH]cn1)NC(=O)[C@H](CO)NC(=O)[C@H](CC(C)C)NC(=O)[C@H](CC(N)=O)NC(=O)[C@H](CCC(N)=O)NC(=O)[C@@H](NC(=O)[C@H](CCC(N)=O)NC(=O)[C@@H]1CSSC[C@H](NC(=O)CNC(=O)[C@@H](NC(=O)[C@H](CCCNC(=N)N)NC(=O)[C@H](CC(C)C)NC(=O)[C@H](CC(C)C)NC(=O)[C@H](CCC(N)=O)NC(=O)[C@H](C)NC(=O)[C@H](CCC(N)=O)NC(=O)[C@@H](N)[C@@H](C)O)C(C)C)C(=O)N[C@@H](C(C)C)C(=O)N[C@@H](CC(C)C)C(=O)NCC(=O)N[C@@H]([C@@H](C)O)C(=O)N1)C(C)C)C(=O)NCC(=O)N1CCC[C@H]1C(=O)N[C@@H](C)C(=O)NCC(=O)N[C@@H](CCCNC(=N)N)C(=O)N[C@@H](CCC(N)=O)C(=O)N[C@@H](CC(=O)O)C(=O)N[C@@H](CO)C(=O)N[C@@H](C)C(=O)N1CCC[C@H]1C(=O)N[C@H](C(=O)N[C@@H](CC(=O)O)C(=O)N1CCC[C@H]1C(=O)N[C@@H](CO)C(=O)N[C@@H](CO)C(=O)N1CCC[C@H]1C(=O)N[C@@H](Cc1c[nH]cn1)C(=O)N[C@@H](CO)C(=O)N[C@@H](Cc1ccc(O)cc1)C(N)=O)C(C)C` [SEQ ID NO: 1], in assay [1] (1 mg/kg IP, mice), the “inhibition of food intake” value was determined as 91%. Moreover, the “ED50, short-term food intake” value in assay [1] (60 min time point, 0.3-300 nmol/kg IP, non-linear regression) turned out to be 19 nmol/kg. In addition, in assay [1] (food intake, 30 min), the “FI 30 min ED50” value lay in the range of 9 to 14 nmol/kg. In addition, the “FI 60 min ED50” value in assay [1] (food intake, 60 min) is 14 to 19 nmol/kg. In assay [2], the “ED50, inhibition of gastric emptying” value was 0.049 mg/kg.

The record behind these values is patent US7928060B2, “Amylin family polypeptide-6 (AFP-6) analogs and methods of making and using them” (Amylin Pharmaceuticals, Inc., priority 2004, dated 2011).
